The values that follow come from US8980542B2, “Arginine-containing compositions and methods for treating red blood cells” (Viacell, LLC, priority 2010, dated 2015).

Data set [1] is described as follows: Solubility of nucleoside in the composition. It is filed as physicochemical. Conditions: equimolecular solution with L-arginine, room temperature.
The test system of another data set is stored RBCs. The data set can be described thus: 2,3-DPG level of stored RBCs after incubation with storage and/or rejuvenating composition (Roche 2,3-DPG kit). The format is cell-based. Conditions: 60 minutes at 37° C. The method, then:
A storage and/or rejuvenating composition that includes D-ribose, inosine, sodium pyruvate, and inorganic phosphate, all at a 300 mM concentration as a slurry was prepared. When used to store and/or rejuvenate RBCs, the slurry is diluted 30-fold to a final concentration of 10 mM to form a solution. […] In a study, RBCs were collected and stored for an average of 21 days at 4° C. according to standard blood banking practice. Various RBC storage and/or rejuvenating compositions were added to the 21-day old stored RBCs and held at 37° C. for one to four hours before being tested for 2,3-DPG concentrations. […] A normal 2,3-DPG concentration of RBC immediately upon harvest is 4.0 μmol/ml. […] An increase to 1.0 μmol/ml is considered a significant improvement.
Experimental protocols were designed to find methods to increase the solubility of inosine. […] A storage and/or rejuvenating composition including 300 mM each of inosine, L-arginine, sodium pyruvate, D-ribose, and inorganic phosphate was diluted 30-fold into 21-day old stored RBCs. One set of stored blood samples was incubated for 60 minutes at room temperature and another was incubated for 60 minutes at 37° C.

Consider `OC[C@H]1O[C@@H](n2cnc3c(O)ncnc32)[C@H](O)[C@@H]1O` [inosine], for which the “concentration at which inosine remained in solution” value in data set [1] is listed as “above 50 mM”. Consider `O=C[C@H](O)[C@H](O)[C@H](O)COP(=O)(O)O` [ribose-5-phosphate], for which, in the data set with stored RBCs (inosine replaced by varying concentrations of the substance in composition with 10 mM each D-ribose, sodium pyruvate, inorganic phosphate), the “Rejuvenation” value is reported as “not observed”. For `Nc1nc2c(ncn2[C@@H]2O[C@H](CO)[C@@H](O)[C@H]2O)c(=O)[nH]1` [Guanosine], the “Rejuvenation” value in the data set on stored RBCs (guanosine with 10 mM each inorganic phosphate and D-ribose, no sodium pyruvate) is recorded as “observed”.
